These results are taken from a melting point compilation (Tetko et al.).

Structures are written as SMILES.

As for `Cc1ccc(-c2nc(C)c(C(=O)O)s2)c(C)c1`, the melting point lay in the range of 218 to 220 °C.

In turn, `O=C1NC(=O)C(Cc2ccccc2)(c2ccccc2)N1` (configuration not stated) came in with a melting point of 209 to 211 °C.

As for `CN(C)c1nnc(S)s1`, the melting point is 178 to 180 °C.

With `CSc1cc(N)ccn1`, the melting point is 79 to 81 °C.

Consider `Nc1ccc(-c2cn3ccccc3n2)cc1`, for which the melting point is 118 to 120 °C.

For `O=C(O)/C=C/c1ccc2c(c1)OCCO2`, the melting point was in the range of 165 to 169 °C.

In the case of `O=C(Nc1ccccc1)c1cccc(CCl)c1`, the melting point lay in the range of 123 to 125 °C.

In turn, `C=CCc1cc(C=O)cc(OC)c1O` registered a melting point of 80 to 82 °C.

As for `CS(=O)(=O)NCc1cccc(CN)c1`, the melting point lay in the range of 70 to 72 °C.

On to `NS(=O)(=O)c1ccc([N+](=O)[O-])nc1`, for which the melting point fell in the range of 174 to 176 °C.

Take `O=C(O)c1cnn(Cc2ccccc2Cl)c1`: the melting point is 144 to 146 °C.

The molecule `CC(=O)Nc1ccc(C(=O)CCl)c(F)c1` returned a melting point of 128 to 130 °C.

Regarding `CC(C)(C)c1ccc(C2(C(=O)O)CC2)cc1`, the melting point fell in the range of 201 to 203 °C.

Consider `NS(=O)(=O)c1cncc(Br)c1`, for which the melting point fell in the range of 199 to 201 °C.

In turn, `NS(=O)(=O)c1nnc[nH]1` came in with a melting point of 224 to 226 °C.

Molecule `O=C(O)CCCc1ccc2c(c1)-c1ccccc1C2` had a melting point of 151 to 153 °C.

Regarding `O=c1c(Cl)c(Cl)cnn1-c1ccc(C(F)(F)F)cn1`, the melting point is 111 to 115 °C.

In turn, `S=c1[nH][nH]c(=NCCc2cccs2)s1` had a melting point of 82 to 84 °C.

Turning to `CCOC(=O)c1nc(-c2ccccc2)oc1N`, the melting point was in the range of 181 to 183 °C.

Molecule `c1ccc(CN(Cc2ccccc2)Cn2nnc3ccccc32)cc1` displayed a melting point of 118 to 120 °C.

For the molecule `Nc1ccc(CCN2CCSCC2)cc1`, the melting point was in the range of 88 to 90 °C.

`NNC(=O)c1ccc(F)cc1Br` gave a melting point of 151 to 153 °C.

On to `CS(=O)(=O)c1cccc(O)c1`, for which the melting point is 69 to 71 °C.

On to `CC(=O)C(Cl)C(=O)Nc1ccccc1` (configuration not stated), for which the melting point was in the range of 101 to 104 °C.

Consider `CC(C)c1ccc(C2(C(=O)O)CCCC2)cc1`, for which the melting point was 153 to 155 °C.

With `O=C(c1ccccc1F)N1CCC(O)CC1`, the melting point is 104 to 106 °C.

Molecule `O=C(O)c1cc2ccc(C(F)(F)F)cc2[nH]1` returned a melting point of 143 to 145 °C.

In turn, `O=c1c2ccccc2nnn1CO` yielded a melting point of 133 to 135 °C.

Turning to `CC(C)(C)c1ccc(C(C)(C)N)cc1`, the melting point is 75 to 77 °C.

For `COc1ccc(-c2csc(NC(=O)C(C)Cl)n2)cc1` (configuration not stated), the melting point fell in the range of 124 to 126 °C.

The molecule `CCOc1ccc(OCCCC(=O)O)cc1` registered a melting point of 104 to 106 °C.

For the molecule `N#Cc1ccc(OCc2cccc(C(=O)O)c2)cc1`, the melting point is 221 to 223 °C.

`O=C1CC(N2CCCC2)C(=O)N1` (configuration not stated) had a melting point of 123 to 125 °C.

With `Cn1c(CO)nnc1-c1ccccc1`, the melting point was 184 to 186 °C.

In turn, `Cc1nc(CCCC(=O)O)cs1` displayed a melting point of 66 to 68 °C.

The molecule `CN(C)c1c(N)n(C)c(=O)[nH]c1=O` showed a melting point of 161 to 163 °C.

`NS(=O)(=O)c1cc(C(=O)O)cs1` displayed a melting point of 194 to 196 °C.

For the molecule `CCC(CO)N1CCNCC1` (configuration not stated), the melting point fell in the range of 78 to 80 °C.

Molecule `Cn1ccnc1-c1ccc([N+](=O)[O-])cc1` returned a melting point of 107 to 109 °C.

`CC(C)(C)c1ccc(N2CCC(N)CC2)cc1` registered a melting point of 80 to 82 °C.

For `COC(=O)c1c[nH]c(=O)c(C#N)c1`, the melting point was 264 to 266 °C.

For the molecule `O=c1[nH]c(-c2ccccc2Cl)cs1`, the melting point is 182 to 184 °C.

`Cn1c(=O)cc(N)n(Cc2ccccc2)c1=O` yielded a melting point of 95 to 99 °C.

Molecule `Nc1cc(C(=O)O)ccc1OCC(F)(F)F` registered a melting point of 176 to 178 °C.

As to `Brc1cccc(-n2cnnn2)c1`, the melting point lay within 90 to 92 °C.

As to `CCOC(=O)c1ccc(Br)c(S(=O)(=O)Cl)c1`, the melting point lay within 93 to 95 °C.

Turning to `O=C(O)c1cnc(-c2ccc(Cl)s2)s1`, the melting point fell in the range of 235 to 237 °C.

Turning to `CC(CO)Nc1nc2ccccc2[nH]1` (configuration not stated), the melting point lay in the range of 174 to 176 °C.

In turn, `Nc1cc2c(nn1)CCNC2` registered a melting point of 219 to 221 °C.

As to `O=C(O)C=CSCc1ccco1`, the melting point was 119 to 121 °C.

In the case of `COc1ccc2c(c1)NC(=O)CO2`, the melting point lay in the range of 157 to 159 °C.

With `C1=CNc2cccc(=C3N=c4ccncc4=N3)c2=C1`, the melting point is 316 to 318 °C.

On to `CCOc1ccc(C(=O)NCC(=O)O)cc1`, for which the melting point was 154 to 156 °C.

With `CC1(C2CCNCC2)NC(=O)NC1=O` (configuration not stated), the melting point lay within 243 to 245 °C.

With `Nc1nc(-c2cccc(F)c2)cs1`, the melting point was 113 to 115 °C.

Consider `COc1cc(/C(C)=N\O)ccc1OCc1ccccc1`, for which the melting point lay within 117 to 119 °C.

Molecule `CCOC(=O)c1c(C)oc2nc(CCl)[nH]c(=O)c12` had a melting point of 197 to 199 °C.

`Cc1cc(Cl)nc(-c2ccccn2)n1` yielded a melting point of 70 to 72 °C.

Take `Cc1nc(Br)ccc1C(=O)O`: the melting point was in the range of 155 to 157 °C.

With `NC(=O)NC(CC(=O)O)c1cccc(Br)c1` (configuration not stated), the melting point was 159 to 161 °C.

`CNC1CC(=O)N(Cc2ccccc2)C1=O` (configuration not stated): the melting point was 72 to 74 °C.

`Cc1ccc(-n2nc(C(=O)O)cc2-c2ccc(-c3ccccc3)cc2)cc1` showed a melting point of 205 to 207 °C.

In the case of `CC(C)(C)OC(=O)NCC1CC2CCCC(C1)N2` (configuration not stated), the melting point lay in the range of 219 to 221 °C.

`O=C(O)CC(O)c1cc(Cl)cc(Cl)c1` (configuration not stated) had a melting point of 198 to 200 °C.

With `CC(C(=O)O)c1ccc(Cl)c(Cl)c1` (configuration not stated), the melting point was 39 to 41 °C.

Take `CCOC(=O)c1cc(Cl)ccc1[N+](=O)[O-]`: the melting point fell in the range of 37 to 39 °C.

The molecule `Cc1ccc2nc(C)c(C(=O)O)cc2c1` returned a melting point of 174 to 176 °C.

Regarding `CS(=O)(=O)N1CCc2cc(C(=O)O)ccc21`, the melting point is 230 to 232 °C.

`FC(F)(F)c1n[nH]c2ccncc12` showed a melting point of 227 to 229 °C.

Turning to `Nc1c(NCCCO)c(=O)[nH]c(=O)n1Cc1ccccc1`, the melting point fell in the range of 155 to 157 °C.

In turn, `Nc1cccc(-c2ncco2)c1` displayed a melting point of 61 to 63 °C.

The molecule `Cn1nnnc1-c1cccc(S(N)(=O)=O)c1` gave a melting point of 168 to 170 °C.

`Nc1ccccc1C(=O)NCCO` showed a melting point of 92 to 94 °C.

As for `Oc1nnc(S)n1CCc1ccccc1`, the melting point lay within 167 to 169 °C.

`COc1ccc2nc(C3CC3)cc(C(=O)O)c2c1` registered a melting point of 219 to 221 °C.

The molecule `Cc1ccc(Cc2cnc(N)s2)cc1` yielded a melting point of 142 to 144 °C.

The molecule `O=C(O)COc1cccc(Br)c1` displayed a melting point of 108 to 110 °C.

As for `CC(C)(C)c1ccc(S(N)(=O)=O)s1`, the melting point lay within 80 to 82 °C.

In turn, `Nc1c(-c2ccccc2)nc2ccccn12` gave a melting point of 152 to 155 °C.

As for `CC(C)CNc1nnc(S)s1`, the melting point lay in the range of 155 to 157 °C.

Consider `Cc1cc(N)c2cc(N)ccc2n1`, for which the melting point is 212 to 214 °C.

`O=C(O)CNC(=O)NCC1CCCC1` displayed a melting point of 138 to 140 °C.

As for `CC(C)(C)OC(=O)NC1(CN)CCCCCC1`, the melting point is 77 to 79 °C.

Consider `CCOC(=O)c1ccc(S(N)(=O)=O)nc1`, for which the melting point fell in the range of 114 to 116 °C.

`Nc1ccc2cccc(Br)c2n1` showed a melting point of 152 to 154 °C.

The molecule `COc1ccc(C2C(CO)CC(=O)N2C)cc1` (configuration not stated) returned a melting point of 82 to 84 °C.

The molecule `O=C(O)CCc1nc(-c2ccccn2)no1` displayed a melting point of 206 to 208 °C.
